Assay results as given in patent publication US20060018827A1, “Positron therapy of inflammation, infection and disease” (priority 2004, published 2006).

How the values were obtained:
BALB/c mice = assay: Radiotoxicity studies of ^18F-FDG in healthy mice; format: in vivo, mouse; conditions: doses of up to 5 mCi i.p., 1 month
Experimental: Radiotoxicity studies of ^18F-FDG in healthy mice. After a 4-hour fast, […] of BALB/c mice were treated i.p. with the following doses of ^18F-FDG: group 1 (three mice), 2.5 mCi; group 2 (three mice), 5 mCi; group 3 (three mice), left untreated for control. The mice were monitored for changes in behavior and body weight for 1 month, after which they were killed. Their heart, brain, liver, kidneys, bladder, and bone marrow were removed, fixed in buffered formalin, sectioned, stained with hematoxylin and eosin (H&E), and analyzed histologically.

[1] = test system: mammary tumors in PyMT mice; assay: Treatment of PyMT mice with ^18F-FDG (toleration, apoptosis and necrosis detection); format: in vivo, mouse
Experimental: Animals. All procedures involving mice were conducted in accordance with the National Institutes of Health regulations concerning the use and care of experimental animals. The study of mice was approved by the Albert Einstein College of Medicine (AECOM) Animal Use Committee. Transgenic mice expressing the polyoma middle T antigen (PyMT) in the mammary epithelium under the control of mouse mammary tumor virus (MMTV) long terminal repeat were provided by Dr. W. J. Muller (McMaster University, Ontario, Canada) and then bred at AECOM. At the age of 10 weeks these mice have multiple mammary tumors 0.15-0.17 cm in diameter. In mice older than 18 weeks the tumors are more than 1 cm in diameter. MMTV-NeuT mice (Muller et al. 1988), which carry erbB-2 (Neu), one of the better known human breast cancer oncogenes, were purchased from Jackson Laboratories. MMTV-NeuT mice were obtained as retired breeders and some of them developed mammary tumors at the age of 5 months, whereas others remained-tumor free until 6-7 months of age. C3H/B6 female mice lacking the PyMT transgene were used as healthy controls in therapy experiments. Notch tumor-bearing mice were produced by subcutaneously injecting six to eight week old female nude mice with […] Notch cells on their right flank. One week after implantation the tumors reached 0.5-0.7 cm in diameter and therapy with FDG was initiated.
Treatment of PyMT mice with ^18F-FDG. After a 4-hour fast, three groups of mice were treated i.p. with the following doses of ^18F-FDG: group 1 (five 10-week-old mice), 2-4 mCi; group 2 (three 22-week-old mice), 2 mCi; group 3 (two C3H/B6 mice), 3 mCi to assess radiation damage to healthy breast tissue. Three 10-week-old and two 22-week-old PyMT mice served as untreated controls. At 10 days after treatment, mice were killed. In younger mice, the right abdominal mammary glands were removed for whole mount preparation as described (Gouon-Evans et al., 2000), then fixed in buffered formalin and sectioned. In older mice, the tumors were removed and processed as above. Some sections were stained with H&E; others were analyzed for the presence of apoptotic and necrotic cells.
Apoptosis and necrosis detection. The detection of apoptotic and necrotic cells in the tumors was performed with an Apoptag® Plus apoptosis detection kit (Serologicals) in accordance with the manufacturer's instructions. In brief, 3′-OH termini of DNA fragments, which are the hallmark of apoptosis, were labeled with digoxigenin-modified nucleotides by terminal deoxynucleotidyl transferase. This enzyme selectively detects apoptotic over necrotic cells. The labeled DNA was detected with an anti-digoxigenin antibody, and detection was performed with a chromagen: apoptotic cells were stained brown, and areas of necrosis were stained yellow.

[2] = Human Maximum Tolerated Dose (MTD) of ^18F-FDG, organ dosimetry calculation; conditions: for 5 Ci FDG Organ dose / 7.5 Ci FDG Organ dose / MTD FDG (calculated MTD of ^18F-FDG for the organ): 70 Kg person
Experimental: The dose-limiting organ for therapy with ^18F-FDG is the bone marrow. The activity of ^18F-FDG that will deliver doses of 200 rad to the red marrow (less than 5% damage in 5 years) (Early and Sodee, 1995) and also 300 rad were calculated using the Medical Internal Radionuclide Dosimetry formalism. A dose of 300 rad was considered because it causes acceptable and manageable hematologic toxicity in selected patients (Early and Sodee, 1995). The subsequent doses delivered to ^18F-FDG-avid tumors were calculated.
Human Maximum Tolerated Dose (MTD) of ^18F-FDG. Table 1 indicates the radiation dose (Column 2) to each organ (Column 1) from 1mCi of ^18F-FDG for a 70 Kg person. The tolerated radiation dose of each organ (5% complications in 5 years) is described in Table 1, Column 3. The MTD of ^18F-FDG for each organ is described in Table 1, Column 4. The smallest value in this column is 4.88 Ci, which is the MTD of ^18F-FDG for a 70 Kg person, delivering 200 cGy to the ovaries. This is the critical organ for female patients; however, female patients with metastatic cancer have usually undergone chemotherapy causing ovarian failure or may choose to accept ovarian failure as a side effect of therapy. If ovarian function is not a consideration, then the critical organ is the bone marrow for both male and female patients. A dose of 5.00 Ci of ^18F-FDG would deliver 200 cGy to the bone marrow of a 70 Kg person.

For `O=C[C@H]([18F])[C@@H](O)[C@H](O)[C@H](O)CO` [^18F-FDG, ^18F-2-deoxy-2-fluoro-D-glucose], the “damage in major organs including bone marrow (histological examination)” value (BALB/c mice) was “no damage in major organs”, the “apoptotic cells in treated small tumors” value ([1]; 10-week-old PyMT mice, tumors 0.15-0.17 cm, 2-4 mCi i.p., 10 days after treatment) was 4±1% and the “necrotic areas, share of tumor volume” value ([1]; 22-week-old PyMT mice, tumors more than 1 cm, 2 mCi i.p., 10 days after treatment) was 14%. The “apoptosis or necrosis in healthy mammary glands” value ([1]; C3H/B6 mice, 3 mCi i.p.) was “No apoptosis or necrosis was detected”, the “changes in eating and drinking habits, urine and fecal excretion, or body weight” value ([1]; PyMT mice, 2-4 mCi i.p., observed for 10 days) was “No changes” and the “radioactivity detected in mice” value ([1]; PyMT mice, 24 hours after injection) was “no radioactivity was detected”. For the same compound, the “5 Ci FDG Organ dose” value ([2]; Bone marrow) was 200 cGy, the “7.5 Ci FDG Organ dose” value ([2]; Bone marrow) was 300 cGy and the “5 Ci FDG Organ dose” value ([2]; Brain) was 850 cGy. The “7.5 Ci FDG Organ dose” value ([2]; Brain) was 1275 cGy, the “MTD FDG (calculated MTD of ^18F-FDG for the organ)” value ([2]; Brain, organ MTD 4500 cGy (5% complications in 5 years)) was 26.47 Ci and the “5 Ci FDG Organ dose” value ([2]; Heart wall) was 1250 cGy. For the same compound, the “7.5 Ci FDG Organ dose” value ([2]; Heart wall) was 1875 cGy, the “MTD FDG (calculated MTD of ^18F-FDG for the organ)” value ([2]; Heart wall, organ MTD 4000 cGy (5% complications in 5 years)) was 16.00 Ci and the “5 Ci FDG Organ dose” value ([2]; Kidneys) was 390 cGy. The “7.5 Ci FDG Organ dose” value ([2]; Kidneys) was 585 cGy, the “MTD FDG (calculated MTD of ^18F-FDG for the organ)” value ([2]; Kidneys, organ MTD 2300 cGy (5% complications in 5 years)) was 29.49 Ci and the “5 Ci FDG Organ dose” value ([2]; Liver) was 440 cGy. For the same compound, the “7.5 Ci FDG Organ dose” value ([2]; Liver) was 660 cGy, the “MTD FDG (calculated MTD of ^18F-FDG for the organ)” value ([2]; Liver, organ MTD 3000 cGy (5% complications in 5 years)) was 34.09 Ci and the “5 Ci FDG Organ dose” value ([2]; Lungs) was 280 cGy. For the same compound, the “7.5 Ci FDG Organ dose” value ([2]; Lungs) was 420 cGy, the “MTD FDG (calculated MTD of ^18F-FDG for the organ)” value ([2]; Lungs, organ MTD 6500 cGy (5% complications in 5 years)) was 116.07 Ci and the “5 Ci FDG Organ dose” value ([2]; Ovaries) was 205 cGy. The “7.5 Ci FDG Organ dose” value ([2]; Ovaries) was 308 cGy, the “MTD FDG (calculated MTD of ^18F-FDG for the organ)” value ([2]; Ovaries, organ MTD 200 cGy (5% complications in 5 years)) was 4.88 Ci and the “5 Ci FDG Organ dose” value ([2]; Testes) was 205 cGy. The “7.5 Ci FDG Organ dose” value ([2]; Testes) was 308 cGy, the “MTD FDG (calculated MTD of ^18F-FDG for the organ)” value ([2]; Testes, organ MTD 500 cGy (5% complications in 5 years)) was 12.20 Ci and the “5 Ci FDG Organ dose” value ([2]; Urinary bladder) was 1350 cGy. For the same compound, the “7.5 Ci FDG Organ dose” value ([2]; Urinary bladder) was 2025 cGy, the “MTD FDG (calculated MTD of ^18F-FDG for the organ)” value ([2]; Urinary bladder, organ MTD 6500 cGy (5% complications in 5 years)) was 24.07 Ci and the “dose to the brain” value ([2]; administered dose of 7.50 Ci) was 1275 rad.
